Source: ChEMBL document CHEMBL1124186, “Synthesis and evaluation of tylosin-related macrolides modified at the aldehyde function: a new series of orally effective antibiotics” (1988)
Values after ≈ are worked out from the molar mass of the structure shown.

What was measured:
Streptococcus pneumoniae = test: In vitro antimicrobial activity against Streptococcus pneumoniae; format: functional
Streptococcus pyogenes = test: In vitro antimicrobial activity against Streptococcus pyogenes C203; format: functional
[1] = system: Staphylococcus epidermidis; test: In vitro antimicrobial activity against Staphylococcus epidermidis EPI1; format: functional
Enterococcus faecium = test: In vitro antimicrobial activity against Streptococcus faecium X66; format: functional, streptococcus fae-cium
Staphylococcus aureus = test: In vitro antimicrobial activity against Staphylococcus aureus X1; format: functional
Haemophilus influenzae = test: In vitro antimicrobial activity against Haemophilus influenzae.; format: functional

Compound	MIC (Streptococcus pneumoniae)	MIC (Streptococcus pyogenes)	MIC [1]	MIC (Enterococcus faecium)	MIC (Staphylococcus aureus)	MIC (Haemophilus influenzae)
CC[C@H]1OC(=O)C[C@@H](O)[C@H](C)[C@@H](O[C@@H]2O[C@H](C)[C@@H](O[C@H]3C[C@@](C)(O)[C@@H](O)[C@H](C)O3)[C@H](N(C)C)[C@H]2O)[C@@H](CCN2C(=O)c3ccccc3C2=O)C[C@@H](C)C(=O)/C=C/C(C)=C/[C@@H]1CO	16 µg/mL (≈ 18.3 µM)	128 µg/mL (≈ 147 µM)	32 µg/mL (≈ 36.7 µM)	> 128 µg/mL	64 µg/mL (≈ 73.3 µM)	> 128 µg/mL
CC[C@H]1OC(=O)C[C@@H](O)[C@H](C)[C@@H](O[C@@H]2O[C@H](C)[C@@H](O[C@H]3C[C@@](C)(O)[C@@H](O)[C@H](C)O3)[C@H](N(C)C)[C@H]2O)[C@@H](CCOC(C(F)(F)F)C(F)(F)F)C[C@@H](C)C(=O)/C=C/C(C)=C/[C@@H]1CO[C@@H]1O[C@H](C)[C@@H](O)[C@@H](OC)[C@H]1OC	32 µg/mL (≈ 30 µM)	8 µg/mL (≈ 7.49 µM)	4 µg/mL (≈ 3.74 µM)	> 128 µg/mL	4 µg/mL (≈ 3.74 µM)	> 128 µg/mL
CC[C@H]1OC(=O)C[C@@H](O)[C@H](C)[C@@H](O[C@@H]2O[C@H](C)[C@@H](O[C@H]3C[C@@](C)(O)[C@@H](O)[C@H](C)O3)[C@H](N(C)C)[C@H]2O)[C@@H](CCOc2ccc(OC(C)=O)cc2)C[C@@H](C)C(=O)/C=C/C(C)=C/[C@@H]1CO[C@@H]1O[C@H](C)[C@@H](O)[C@@H](OC)[C@H]1OC	0.5 µg/mL (≈ 0.475 µM)	0.5 µg/mL (≈ 0.475 µM)	0.5 µg/mL (≈ 0.475 µM)	8 µg/mL (≈ 7.6 µM)	0.5 µg/mL (≈ 0.475 µM)	> 128 µg/mL
CC[C@H]1OC(=O)C[C@@H](O)[C@H](C)[C@@H](O[C@@H]2O[C@H](C)[C@@H](O)[C@H](N(C)C)[C@H]2O)[C@@H](CCOC(C)=O)C[C@@H](C)C(=O)/C=C/C(C)=C/[C@@H]1CO[C@@H]1O[C@H](C)[C@@H](O)[C@@H](OC)[C@H]1OC	2 µg/mL (≈ 2.45 µM)	0.12 µg/mL (≈ 0.147 µM)	0.25 µg/mL (≈ 0.306 µM)	8 µg/mL (≈ 9.8 µM)	0.5 µg/mL (≈ 0.613 µM)	16 µg/mL (≈ 19.6 µM)
CC[C@H]1OC(=O)C[C@@H](O)[C@H](C)[C@@H](O[C@@H]2O[C@H](C)[C@@H](O)[C@H](N(C)C)[C@H]2O)[C@@H](CCI)C[C@@H](C)C(=O)/C=C/C(C)=C/[C@@H]1CO[C@@H]1O[C@H](C)[C@@H](O)[C@@H](O)[C@H]1OC	2 µg/mL (≈ 2.3 µM)	0.5 µg/mL (≈ 0.575 µM)	0.5 µg/mL (≈ 0.575 µM)	16 µg/mL (≈ 18.4 µM)	0.5 µg/mL (≈ 0.575 µM)	32 µg/mL (≈ 36.8 µM)
CC[C@H]1OC(=O)C[C@@H](O)[C@H](C)[C@@H](O[C@@H]2O[C@H](C)[C@@H](O)[C@H](N(C)C)[C@H]2O)[C@@H](CCO)C[C@@H](C)C(=O)/C=C/C(C)=C/[C@@H]1C	16 µg/mL (≈ 27.4 µM)	16 µg/mL (≈ 27.4 µM)	16 µg/mL (≈ 27.4 µM)	32 µg/mL (≈ 54.8 µM)	4 µg/mL (≈ 6.85 µM)	32 µg/mL (≈ 54.8 µM)
CC[C@H]1OC(=O)C[C@@H](O)[C@H](C)[C@@H](O[C@@H]2O[C@H](C)[C@@H](O[C@H]3C[C@@](C)(O)[C@@H](O)[C@H](C)O3)[C@H](N(C)C)[C@H]2O)[C@@H](CCO)C[C@@H](C)C(=O)/C=C/C(C)=C/[C@@H]1C	64 µg/mL (≈ 87.9 µM)	64 µg/mL (≈ 87.9 µM)	32 µg/mL (≈ 44 µM)	64 µg/mL (≈ 87.9 µM)	64 µg/mL (≈ 87.9 µM)	> 128 µg/mL
CC[C@H]1OC(=O)C[C@@H](O)[C@H](C)[C@@H](O[C@@H]2O[C@H](C)[C@@H](O[C@H]3C[C@@](C)(O)[C@@H](O)[C@H](C)O3)[C@H](N(C)C)[C@H]2O)[C@@H](CCNc2ccc(OC(C)=O)cc2)C[C@@H](C)C(=O)/C=C/C(C)=C/[C@@H]1CO[C@@H]1O[C@H](C)[C@@H](O)[C@@H](OC)[C@H]1OC	1 µg/mL (≈ 0.951 µM)	2 µg/mL (≈ 1.9 µM)	0.5 µg/mL (≈ 0.476 µM)	64 µg/mL (≈ 60.9 µM)	1 µg/mL (≈ 0.951 µM)	128 µg/mL (≈ 122 µM)
CCOC(=O)NN(CC[C@H]1C[C@@H](C)C(=O)/C=C/C(C)=C/[C@H](CO[C@@H]2O[C@H](C)[C@@H](O)[C@@H](OC)[C@H]2OC)[C@@H](CC)OC(=O)C[C@@H](O)[C@H](C)[C@H]1O[C@@H]1O[C@H](C)[C@@H](O[C@H]2C[C@@](C)(O)[C@@H](O)[C@H](C)O2)[C@H](N(C)C)[C@H]1O)C(=O)OCC	8 µg/mL (≈ 7.43 µM)	8 µg/mL (≈ 7.43 µM)	4 µg/mL (≈ 3.72 µM)	> 128 µg/mL	2 µg/mL (≈ 1.86 µM)	> 128 µg/mL
CC[C@H]1OC(=O)C[C@@H](O)[C@H](C)[C@@H](O[C@@H]2O[C@H](C)[C@@H](O[C@H]3C[C@@](C)(O)[C@@H](O)[C@H](C)O3)[C@H](N(C)C)[C@H]2O)[C@@H](CCOc2ccc(C=O)cc2)C[C@@H](C)C(=O)/C=C/C(C)=C/[C@@H]1CO[C@@H]1O[C@H](C)[C@@H](O)[C@@H](OC)[C@H]1OC	16 µg/mL (≈ 15.7 µM)	1 µg/mL (≈ 0.978 µM)	1 µg/mL (≈ 0.978 µM)	128 µg/mL (≈ 125 µM)	1 µg/mL (≈ 0.978 µM)	> 128 µg/mL
CC[C@H]1OC(=O)C[C@@H](O)[C@H](C)[C@@H](O[C@@H]2O[C@H](C)[C@@H](O)[C@H](N(C)C)[C@H]2O)[C@@H](CCN2C(=O)c3ccccc3C2=O)C[C@@H](C)C(=O)/C=C/C(C)=C/[C@@H]1CO	64 µg/mL (≈ 87.8 µM)	64 µg/mL (≈ 87.8 µM)	4 µg/mL (≈ 5.49 µM)	16 µg/mL (≈ 22 µM)	4 µg/mL (≈ 5.49 µM)	64 µg/mL (≈ 87.8 µM)
CC[C@H]1OC(=O)C[C@@H](O)[C@H](C)[C@@H](O[C@@H]2O[C@H](C)[C@@H](O[C@H]3C[C@@](C)(O)[C@@H](O)[C@H](C)O3)[C@H](N(C)C)[C@H]2O)[C@@H](CCOc2ccc(OC)cc2)C[C@@H](C)C(=O)/C=C/C(C)=C/[C@@H]1CO[C@@H]1O[C@H](C)[C@@H](O)[C@@H](OC)[C@H]1OC	8 µg/mL (≈ 7.81 µM)	1 µg/mL (≈ 0.976 µM)	2 µg/mL (≈ 1.95 µM)	128 µg/mL (≈ 125 µM)	0.5 µg/mL (≈ 0.488 µM)	128 µg/mL (≈ 125 µM)
CC[C@H]1OC(=O)C[C@@H](O)[C@H](C)[C@@H](O[C@@H]2O[C@H](C)[C@@H](O[C@H]3C[C@@](C)(O)[C@@H](O)[C@H](C)O3)[C@H](N(C)C)[C@H]2O)[C@@H](CCN2CCCCCCC2)C[C@@H](C)C(=O)/C=C/C(C)=C/[C@@H]1CO[C@@H]1O[C@H](C)[C@@H](O)[C@@H](O)[C@H]1OC	16 µg/mL (≈ 16 µM)	2 µg/mL (≈ 2 µM)	8 µg/mL (≈ 8.01 µM)	64 µg/mL (≈ 64 µM)	4 µg/mL (≈ 4 µM)	> 128 µg/mL
CC[C@H]1OC(=O)C[C@@H](O)[C@H](C)[C@@H](O[C@@H]2O[C@H](C)[C@@H](O[C@H]3C[C@@](C)(O)[C@@H](O)[C@H](C)O3)[C@H](N(C)C)[C@H]2O)[C@@H](CCOc2ccc(C(=O)c3ccccc3)cc2)C[C@@H](C)C(=O)/C=C/C(C)=C/[C@@H]1CO[C@@H]1O[C@H](C)[C@@H](O)[C@@H](OC)[C@H]1OC	1 µg/mL (≈ 0.91 µM)	2 µg/mL (≈ 1.82 µM)	2 µg/mL (≈ 1.82 µM)	4 µg/mL (≈ 3.64 µM)	1 µg/mL (≈ 0.91 µM)	> 128 µg/mL
CC[C@H]1C[C@@H](C)C(=O)/C=C/C(C)=C/[C@H](CO)[C@@H](CC)OC(=O)C[C@@H](O)[C@H](C)[C@H]1O[C@@H]1O[C@H](C)[C@@H](O[C@H]2C[C@@](C)(O)[C@@H](O)[C@H](C)O2)[C@H](N(C)C)[C@H]1O	> 128 µg/mL	> 128 µg/mL	128 µg/mL (≈ 176 µM)	> 128 µg/mL	128 µg/mL (≈ 176 µM)	> 128 µg/mL
CC[C@H]1OC(=O)C[C@@H](O)[C@H](C)[C@@H](O[C@@H]2O[C@H](C)[C@@H](O[C@H]3C[C@@](C)(O)[C@@H](O)[C@H](C)O3)[C@H](N(C)C)[C@H]2O)[C@@H](CCNCCc2ccccc2)C[C@@H](C)C(=O)/C=C/C(C)=C/[C@@H]1CO	4 µg/mL (≈ 4.72 µM)	8 µg/mL (≈ 9.44 µM)	16 µg/mL (≈ 18.9 µM)	32 µg/mL (≈ 37.8 µM)	16 µg/mL (≈ 18.9 µM)	64 µg/mL (≈ 75.6 µM)
CC[C@H]1OC(=O)C[C@@H](O)[C@H](C)[C@@H](O[C@@H]2O[C@H](C)[C@@H](O[C@H]3C[C@@](C)(O)[C@@H](O)[C@H](C)O3)[C@H](N(C)C)[C@H]2O)[C@@H](CCOc2ncnc3ccccc23)C[C@@H](C)C(=O)/C=C/C(C)=C/[C@@H]1CO[C@@H]1O[C@H](C)[C@@H](O)[C@@H](OC)[C@H]1OC	4 µg/mL (≈ 3.82 µM)	4 µg/mL (≈ 3.82 µM)	1 µg/mL (≈ 0.956 µM)	32 µg/mL (≈ 30.6 µM)	0.5 µg/mL (≈ 0.478 µM)	> 128 µg/mL
CC[C@H]1OC(=O)C[C@@H](O)[C@H](C)[C@@H](O[C@@H]2O[C@H](C)[C@@H](O[C@H]3C[C@@](C)(O)[C@@H](O)[C@H](C)O3)[C@H](N(C)C)[C@H]2O)[C@@H](CCNCCc2ccccc2)C[C@@H](C)C(=O)/C=C/C(C)=C/[C@@H]1C	1 µg/mL (≈ 1.2 µM)	2 µg/mL (≈ 2.41 µM)	4 µg/mL (≈ 4.81 µM)	8 µg/mL (≈ 9.63 µM)	4 µg/mL (≈ 4.81 µM)	64 µg/mL (≈ 77 µM)
CC[C@H]1C[C@@H](C)C(=O)/C=C/C(C)=C/[C@H](C)[C@@H](CC)OC(=O)C[C@@H](O)[C@H](C)[C@H]1O[C@@H]1O[C@H](C)[C@@H](O)[C@H](N(C)C)[C@H]1O	16 µg/mL (≈ 28.2 µM)	8 µg/mL (≈ 14.1 µM)	16 µg/mL (≈ 28.2 µM)	64 µg/mL (≈ 113 µM)	8 µg/mL (≈ 14.1 µM)	64 µg/mL (≈ 113 µM)
